For data set [1], the system named is Gastric-secretion and ulcus. Briefly: Stomach-secretion and ulcus tests (pylorus ligature). The conditions noted are these: 3 hours before operation. The format is in vivo, Wistar rats. As to the method:
Method: Shay, H., Komarov, S. A., Fels. S. S., Meranze, D., Gruenstein, M., Siplet, H.: Gastroenterology 5, 45 (1945); Adami, E., Marazzi-Ubertti, E., Tirba, C.: Arch. Int. Pharmacodyn. 147, 113 (1964)
Starved wistar […] of 150-250 g body weight were used, 4 male and 4 female animals for each dose. On the day of the experiment the pylorus of the animals was ligatured under ether narcosis. The doses of the test compounds were administered per os, 3 hours before the operation. The control groups were treated with the carrier in identical way. 4 hours after the operation the animals were over-narcotized with ether, their stomach was removed, the stomach contents were separated and after centrifugation the volume of the gastric juices was measured, then their free-acid content and total acidity, resp., were determined by titration with 0.1N NaOH solution. The changes of the gastric mucous membrane were investigated macroscopically and characterized by an ulcus index determined with the aid of the punctuation method of Adami and coworkers.

The test system of another data set is mice. The format is in vivo. The conditions noted are these: p.o., motility inhibiting effect. As to the method:
Method: Borsy, J., Csanyi, E., Lazar, I.: Arch. Int. Pharmacodyn. 124, 1-2 (1960)
The tests were performed on mice. Groups consisting of 3 mice each were trated perorally with different doses of the compounds to be tested. One hour after the administration the test animals were placed in a Dews equipment. In this equipment the number of interruptions of infrared beam within 30 minutes was counted.

A further data set can be described thus: Acute toxicity on mice. The settings on record: mouse, in vivo, po, observed 14 days. As to the method:
Method: Litchfield, J. T., Wilcoxon, F. W.: Pharmacol. Exp. Ther., 96, 99 (1949)
White mice belonging to the CFLP strain (body weight 18 to 22 g, both male and female) were used, 6 animals for each dose. The test compounds were administered orally in a volume of 20 ml/kg. […] The mice were kept in a plastic cage at room temperature. The animals get tap water and standard mouse fodder ad libitum. The toxicity data were determined with the aid of the method of Litchfield and Wilcoxon.

Data set [2] concerns Acinetobacter calcoaceticus. Briefly: Antimicrobial effect, agar diffusion method. The format is cell-based. The settings on record: HNCMB 150001; 500/μg/hole. The text has this: (§1) In addition, the compounds according to the invention posses valuable antimicrobial effect, especially against nonfermenting Gram-negative bacteria strains.
(Agar diffusion results depend on both activity and mobility in agar.)

For the next data set, the system named is Pseudomonas aeruginosa. The data set can be described thus: Antimicrobial effect, agar diffusion method. The conditions noted are these: HNCMB 170006; 500/μg/hole. The format is cell-based.
From the text: as §1

In the next data set the test system is Shigella sonnei. The data set can be described thus: Antimicrobial effect, agar diffusion method. The format is cell-based. The settings on record: HNCMB 20046; 500/μg/hole.
From the text: as §1

A further data set has as its system Pseudomonas stutzeri. Briefly: Antimicrobial effect, agar diffusion method. The conditions noted are these: HNCMB 173008; 500/μg/hole. It is filed as cell-based.
From the text: as §1

The subject of a further data set is Salmonella enteritidus. The data set can be described thus: Antimicrobial effect, agar diffusion method. The format is cell-based. The settings on record: HNCMB 10091; 500/μg/hole.
From the text: as §1

The test system of the next data set is Alcaligenea faecalis. The data set can be described thus: Antimicrobial effect, agar diffusion method. The format is cell-based. The conditions noted are these: HNCMB 140001; 500/μg/hole.
From the text: as §1

Data set [3] concerns experimental coronaria insufficiency. The data set can be described thus: Antianginal effect (vasopressin-induced experimental coronaria insufficiency, ECG wave T). It is filed as in vivo. The conditions noted are these: Rattus norvegicus; rats, iv., 2 minutes prior to vasopressin. As to the method: The test was carried out on rats weighing 180 to 220 g. The animals were narcotised with chloralese-urethane (70-700 mg/kg ip.). The ECG was registered with needle electrodes in standard II leading. The experimental coronaria insufficiency was induced with vasopressin (1 NE/kg i.v.). The height of wave T was measured before and after the administration of vasopressin in both the control and treated groups.

Molecules are shown by their SMILES.

For `CN/C(=N/CCSCc1nc[nH]c1C)NC#N` [Cimetidine, reference compound], in [1] (50 mg/kg po.), the “Inhibition related to the control in %, free acid” value stood at 24%; the “Inhibition related to the control in %, gastric juice” value turned out to be 22%; the “Inhibition related to the control in %, total acidity” value amounted to 15%; the “Inhibition related to the control in %, ulcus index” value turned out to be 18%. Further, in [1] (200 mg/kg po.), the “Inhibition related to the control in %, free acid” value is recorded as 91%; the “Inhibition related to the control in %, gastric juice” value is given as 59%; the “Inhibition related to the control in %, total acidity” value was 71%; the “Inhibition related to the control in %, ulcus index” value is 72%.
Consider `CN(N)C(=S)n1nc(N2CCOCC2)nc1N` [Example 1, 1-(5-Amino-3-morpholino-1H-1,2,4-triazol-1-yl)-N-methyl-carbothiohydrazide], for which, in the data set on mice, the Therapeutical index is > 10. Further, in the data set “Acute toxicity on mice”, the LD50 at 336 h was > 1000 mg/kg.
In the case of `CSc1nc(N)n(C(=S)N(C)N)n1` [Example 4, 1-(5-Amino-3-methylthio-1H-1,2,4-triazol-1-yl)-N-methyl-carbothiohydrazide], in data set [1] (60 mg/kg po.), the “Inhibition related to the control in %, free acid” value was determined as 60%; the “Inhibition related to the control in %, gastric juice” value is 41%; the “Inhibition related to the control in %, total acidity” value turned out to be 50%; the “Inhibition related to the control in %, ulcus index” value amounted to 67%. Besides, the LD50 at 336 h in the data set “Acute toxicity on mice” is 300 mg/kg.
Regarding `CN1CCN(c2nc(N)n(C(=S)N(C)N)n2)CC1` [Example 9], the “Inhibition (%)” value in [2] is recorded as 20%; in the data set with Pseudomonas aeruginosa, 14%; in the data set on Shigella sonnei it was 19%; in the data set on Pseudomonas stutzeri it was 25%; in the data set with Salmonella enteritidus it was 17%; with Alcaligenea faecalis, 23%. The compound further came in with an LD50 at 336 h in “Acute toxicity on mice” of 1000 mg/kg.
Regarding `NNC(=S)n1nc(N2CCOCC2)nc1N` [Example 16, 1-(5-Amino-3-morpholino-1H-1,2,4-triazol-1-yl)carbothiohydrazide], in the data set “Acute toxicity on mice”, the LD50 at 336 h was 1000 mg/kg. The compound further yielded an ED50 in [3] of 0.7 mg/kg.
Turning to `CSc1nc(N)n(C(=S)NN)n1` [Example 17, 1-(5-Amino-3-methylthio-1H-1,2,4-triazol-1-yl)carbothiohydrazide], in the data set with mice, the Therapeutical index is on record as ~ 5. In “Acute toxicity on mice”, this compound returned an LD50 at 336 h of 350 mg/kg. Also, the 50% effect level in data set [3] (ED50) was put at a dose of 0.84 mg/kg.
As to `CNN(C)C(=S)n1nc(N2CCOCC2)nc1N` [Example 20, 1-(5-Amino-3-morpholino-1H-1,2,4-triazol-1-yl)-N,N'-dimethyl-carbothiohydrazide], in data set [1] (50 mg/kg po.), the “Inhibition related to the control in %, free acid” value is 46%; the “Inhibition related to the control in %, gastric juice” value worked out at 36%; the “Inhibition related to the control in %, total acidity” value is on record as 36%; the “Inhibition related to the control in %, ulcus index” value was determined as 39%. In [1] (200 mg/kg po.), the “Inhibition related to the control in %, free acid” value turned out to be 91%; the “Inhibition related to the control in %, gastric juice” value is 58%; the “Inhibition related to the control in %, total acidity” value was determined as 78%; the “Inhibition related to the control in %, ulcus index” value worked out at 70%. The LD50 at 336 h in the data set “Acute toxicity on mice” is 1000 mg/kg.
On to `CCCC(C)(COC(N)=O)COC(N)=O` [Meprobamate, reference compound], for which the Therapeutical index with mice is on record as 4.1.
`CC(Cc1ccccc1)NCCC(c1ccccc1)c1ccccc1` (centres unmarked) [Prenylamine, reference compound] registered an ED50 in data set [3] of 6.5 mg/kg.

In general, LD50 refers to the dose at which mortality reaches 50%. A low value points to a more toxic substance. Broadly, the ED50 is the dose at which the effect has come halfway, by size or by number of responders. High values mean a need for a large dose, low ones an effect at a small dose.

The values are drawn from patent publication US5225410A, “Triazolyl hydrazide derivatives” (Egis Gyogyszergyar, priority 1989, dated 1993).
